Results as given in article PMC6001375, “CLERK is a novel receptor kinase required for sensing of root-active CLE peptides in Arabidopsis” (Development (Cambridge, England), 2018).
Where no end group is shown, it is not given here. [ ]: non-standard residue; d: D form. Hyp = O=C(O)[C@@H]1C[C@@H](O)CN1

How the values were obtained:
CLAVATA 1 (CLV1) = details: ref Brand et al., 2000; Clark et al., 1995; Fletcher et al., 1999; cited from earlier work
Description: (§1) The endogenous CLAVATA3/EMBRYO SURROUNDING REGION (CLE) peptides of plants are secreted as propeptides and processed to yield bioactive 12-14 amino acid long ligands ([Cock and McCormick, 2001]; [Ito et al., 2006]; [Kondo et al., 2006]). The Arabidopsis thaliana genome contains 32 CLE genes, which encode 27 distinct CLE peptides ([Goad et al., 2016]; [Ito et al., 2006]; [Strabala et al., 2006]). Exogenous application of chemically synthesized CLE peptides at nanomolar concentrations frequently suppresses Arabidopsis root growth in tissue culture ([Depuydt et al., 2013]; [Fiers et al., 2005]; [ ...

SERKs with PXY = details: ref Hazak et al., 2017; Santiago et al., 2016; Zhang et al., 2016a,b; cited from earlier work
Description: In numerous cases, ligand sensing by LRR-RKs requires interaction with co-receptor kinases ([Brandt and Hothorn, 2016]; [Hazak and Hardtke, 2016]; [Katsir et al., 2011]; [Li and Tax, 2013]). […] SERKs have also been implicated in PXY-mediated CLE41/44 signaling, although binding of PXY-CLE41/44 to ...

[1] = system: PXY ectodomain with NIK1/2/3 ectodomains; assay: Analytical size-exclusion chromatography, PXY + NIK1/2/3 ectodomains; type: binding, Arabidopsis thaliana; details: Fig. S3F; 50 µM peptide; pH 5.0
Description: (§2) Isolation of recombinant proteins and analytical gel filtrations were carried out as described previously ([Hazak et al., 2017]) with small adjustments. The coding sequences for BAM1-ECD (amino acids 20-637), BAM3-ECD (30-651), PXY-ECD (30-647), NIK1-ECD (32-248), NIK2-ECD (33-248), NIK3-ECD (26-238), CLERK-ECD (28-236) and At5G63710-ECD (51-224) were amplified from Arabidopsis thaliana cDNA using PfuX7 polymerase. All ECD-coding sequences were then cloned into a modified pFAST-BAC1 vector (Geneva Biotech) by GIBSON cloning, resulting in the addition of the azurocidin signal peptide sequence to the 5′-end, and of a 2×-STREP-9×HIS tag to the 3′-end of the ECD sequences. These plasmids, after being confirmed by sequencing, were transformed into Escherichia coli DH10MultiBac (Geneva Biotech) followed by the extraction of the resulting bacmids. Transfection of the bacmids into Spodoptera frugiperda Sf9 cells with Profectin (AB Vector) was carried out to produce and amplify the respective virus. Recombinant secreted expression of the proteins was carried out by addition of virus to Trichoplusia ni Tnao38 cells to reach a viral multiplicity of 1 and incubation of the cells for 3 days. […] Concentrations of the pure proteins were assessed by measuring their absorbance at 280 nm (NanoDrop Lite; Thermo Scientific) and subsequent correction with their respective extinction coefficient. […]

[2] = system: PHLOEM INTERCALATED WITH XYLEM (PXY); details: ref Etchells and Turner, 2010; Fisher and Turner, 2007; Hirakawa et al., 2008; Morita et al., 2016; cited from earlier work
Description: as §1

[3] = system: PXY ectodomain with CLERK/At5g63710 ectodomains; assay: Analytical size-exclusion chromatography, PXY + CLERK/At5g63710 ectodomains; type: binding, Arabidopsis thaliana; details: 50 µM peptide
Description: as §2

[4] = biological target: T1, BARELY ANY MERISTEM 1 (BAM1) ectodomain (Arabidopsis thaliana, UniProt O49545 20-637); assay: ITC
T1 chain: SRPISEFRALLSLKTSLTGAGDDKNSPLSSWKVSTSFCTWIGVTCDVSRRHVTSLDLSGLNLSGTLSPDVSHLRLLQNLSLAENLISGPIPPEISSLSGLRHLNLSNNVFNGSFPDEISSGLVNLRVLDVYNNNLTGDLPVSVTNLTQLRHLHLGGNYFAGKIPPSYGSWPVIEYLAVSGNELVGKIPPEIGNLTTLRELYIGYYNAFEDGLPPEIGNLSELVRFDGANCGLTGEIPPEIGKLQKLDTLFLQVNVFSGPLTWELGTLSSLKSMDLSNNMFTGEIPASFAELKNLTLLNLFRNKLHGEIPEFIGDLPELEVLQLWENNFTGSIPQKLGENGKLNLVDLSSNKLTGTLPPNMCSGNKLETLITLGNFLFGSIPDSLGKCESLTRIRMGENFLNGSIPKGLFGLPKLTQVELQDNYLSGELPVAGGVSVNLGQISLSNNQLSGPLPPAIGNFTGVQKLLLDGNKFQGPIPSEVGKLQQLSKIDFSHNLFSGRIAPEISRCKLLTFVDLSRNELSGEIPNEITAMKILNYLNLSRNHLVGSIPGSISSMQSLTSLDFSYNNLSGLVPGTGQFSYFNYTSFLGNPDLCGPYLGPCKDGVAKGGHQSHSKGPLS

[5] = biological target: T2, BARELY ANY MERISTEM 1 (BAM1) ectodomain (Arabidopsis thaliana, UniProt O49545 20-637); assay: ITC; Nano ITC, 25°C, 20 mM citrate (pH 5.0), 150 mM NaCl; peptide in the syringe, ectodomain in the cell: 400 µM CLE26 or CLE45 into 30 µM CLERK-ECD; 80 µM CLE9 into 13.8 µM BAM1-ECD; details: both partners purified
T2 construct: BAM1, LRR receptor kinase of Arabidopsis thaliana, extracellular domain, amino acids 20-637; The azurocidin signal peptide was added at the N-terminus for secretion; also called BAM1-ECD
T2 sequence (looked up): T1 chain

CLV3: prototypical CLV3 peptide, directly bound by CLV1 to regulate stem cell homeostasis in shoot meristems (RTVPSGPDPLHHH; not fully specified; ends and bridges not checked; UniProt Q9XF04 70-82, looked up)
Binding to CLV1 (CLAVATA 1 (CLV1)): directly binds

HEVPSGPNPISN [CLE41, identical CLE41 and CLE44 peptides, perceived by PXY]
Binding of PXY-CLE41/44 to SERKs (SERKs with PXY): comparatively weak | Elution of PXY ectodomain with NIK1/2/3 ectodomains [1]: elute as monomers | Perception by PXY [2]: perceives | Elution of PXY ectodomain with CLERK/At5g63710 ectodomains ([3]; Fig. S3C, pH 5.0): elute as monomers | Peptide-dependent binding of CLERK ectodomain to PXY ectodomain ([3]; gel filtration, 20 mM citrate (pH 5.0), 150 mM NaCl): Neither did CLERK ectodomain bind to the BAM1 ectodomain or the PXY ectodomain

B1: CLE9 peptide (peptide)
peptide: RLV[Hyp]SG[Hyp]NPLHN
notes: CLE9 peptide of Arabidopsis thaliana, 12 residues; source: synthetic peptide (PSL GmbH)
Kd [4]: 12.7 nM | binding result [5]: binds
